No end group written: not given here.
Experiments:
[1] = biological target: T1, PACAP-R2 (Homo sapiens, UniProt P32241); assay: Cyclic AMP SPA on CHO cells transfected with PACAP-R2; assay type: cell-based; settings: cAMP SPA, concentration at which 50% of maximum PACAP27 activity is achieved, NA = no detectable activities, read-out: R2 EC50
T1 construct: expressed in transfected cells; host or cells: CHO cells
T1 sequence (P32241 31-457): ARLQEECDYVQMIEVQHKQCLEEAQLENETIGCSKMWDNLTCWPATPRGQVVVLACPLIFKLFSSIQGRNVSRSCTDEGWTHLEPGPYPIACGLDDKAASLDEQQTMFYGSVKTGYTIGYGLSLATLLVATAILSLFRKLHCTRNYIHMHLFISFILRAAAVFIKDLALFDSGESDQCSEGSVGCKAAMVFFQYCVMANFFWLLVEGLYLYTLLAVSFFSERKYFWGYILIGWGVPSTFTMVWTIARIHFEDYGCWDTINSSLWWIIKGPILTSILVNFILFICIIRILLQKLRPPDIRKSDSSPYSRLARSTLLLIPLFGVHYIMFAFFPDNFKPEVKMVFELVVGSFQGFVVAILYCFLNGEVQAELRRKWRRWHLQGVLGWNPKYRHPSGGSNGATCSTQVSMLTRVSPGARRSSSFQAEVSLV
Procedure: (§1) CHO cells expressing the PACAP R3 were plated in 96-well plates (Costar) at 8×10^4 cell/well and grown at 37 C. for 24 hours in α MEM+nucleosides+glutamine (Giobco BRL), 10% FBS, 100 μg/ml Pen/Strep, 0.3 mg/ml glutamine, 1 mM HEPES, 0.5 mg/ml Geneticin (Gibco BRL). The media was removed and the plates were washed with PBS. The cells were incubated with a peptide, in Hepes-PBS-BSA with 0.4 mg/mlSoybean Trypsin Inhibitor, 0.5 mg/ml Bacitracin, 100 uM IBMX, for 15 min at 37 C. Cyclic AMP in the cell extracts was quantitated using the cAMP SPA direct screening assay system (Amersham Pharmacia Biotech Inc, Piscataway, N.J.,). The peptides shown in Table 3 were assayed for cAMP activity.
(§2) EC50 is defined as the concentration of the polypeptide at which 50% of maximum PACAP27 activity is achieved. “NA” denotes no detectable activities. “R3 Selectivity” is derived from the ratio of EC50 at R2 versus EC50 at R3.

[2] = biological target: T2, PACAP-R3 (Homo sapiens, UniProt P41587); assay: Cyclic AMP SPA on CHO cells expressing PACAP R3; assay type: cell-based; parameters: expressed in transfected cells; host or cells: CHO cells (Geneticin selection); settings: for EC50: cAMP SPA, CHO cells transfected with PACAP-R3, concentration at which 50% of maximum PACAP27 activity is achieved, NA = no detectable activities, read-out: R3 EC50; for R3 Selectivity: ratio of EC50 at R2 versus EC50 at R3
T2 sequence (P41587 24-438): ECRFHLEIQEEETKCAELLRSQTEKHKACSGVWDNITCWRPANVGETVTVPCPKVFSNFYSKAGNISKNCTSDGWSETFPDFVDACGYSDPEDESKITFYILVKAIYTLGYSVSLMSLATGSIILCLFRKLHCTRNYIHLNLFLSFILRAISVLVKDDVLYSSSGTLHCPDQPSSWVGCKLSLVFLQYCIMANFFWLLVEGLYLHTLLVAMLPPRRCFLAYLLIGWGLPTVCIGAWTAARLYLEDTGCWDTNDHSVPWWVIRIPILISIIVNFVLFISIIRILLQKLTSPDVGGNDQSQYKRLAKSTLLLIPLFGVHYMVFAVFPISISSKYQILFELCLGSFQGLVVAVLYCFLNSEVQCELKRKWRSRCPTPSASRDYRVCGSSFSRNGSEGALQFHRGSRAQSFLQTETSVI
Procedure: as §1, §2

Substance	EC50 [1] [nM]	EC50 [2] [nM]	R3 Selectivity [2]
HSDAVFTDNYTRLRKQMAAKKYLNSIENKR [Peptide R3P119]	15	0.5	30
HSDAVFTDNYTRLRKQMAAKKYLNSIKNKA [Peptide R3P153]	40	0.2	200
HSDAVFTDNYTRLRKQMAVKKYLNSIKKKRY [Peptide R3P56]	40	0.4	100
HSDGIFTDSYSRYRKQMAVKKYLAKVL-NH2 [PAC25]	0.13	0.04	3
HSDAVFTDNYTRLRKQVAVKKYLQSILKKRY [Peptide R3P87]	0.6	0.2	3
HSDAVFTDNYTRLRKQMAVKKYLNDLKKGGT [Peptide R3P14]	50	17	3
HSDAVFTDNYTRLRKQLAAKKYLNDIKKGG [Peptide R3P31]	> 100	0.3	>300
HSDAVFTDNYTRLRKQMAAKKYLNSIKNVR [Peptide R3P150]	40	0.8	50
HSDAVFTDNYTRLRKQVAAKKYLQSILNKRY [Peptide R3P92]	2	0.02	100
HSDGIFTDSYSRYRKQMAVKKYLSAVRHGQT-NH2 [Peptide R3P15]	12	5	2
HSDAVFTDNYTRLRKQMAAKKYLNSIKNKG [Peptide R3P158]	6	0.07	90
H-HSDAVFTDNYTRLRKQMAAKKYLNSISNKR [Peptide R3P129]	50	1	50
HSDAVFTDNYTRLRKQMAAKKYLNSIKKGGT [Peptide R3P26]	> 100	0.55	>180
HSDAVFTDNYTRLRKQMAKKKYLNSIKNRI [rR3P176]	300	2	150
HSDGIFTDSYSRYRKQMAVEKYLAAVL-NH2 [PAC20]	20	0.7	30
HSDAVFTDNYTRLRKQMAAKKYLNSIKNKF [Peptide R3P157]	50	0.3	170
HSDAVFTDNYTRLRKQLAAKKYLNDILKGGT [Peptide R3P23]	10	0.43	23
H-HSDGIFTDSYSRYRKQMAVKKYKAAVL-NH2 [PAC23]	170	13	13
HSDAVFTDNYTRLRKQMAKKKYLNSIPNRI [rR3P181]	280	5.1	50
HSDAVFTDNYTRLRKQMAWKKYLNSIKNKR [Peptide R3P114]	20	2	10
HSDAVFTDNYTKLRKQLAAKKYLNDILNGGT [Peptide R3P11]	10	3	3
H-HSDGIFTDSYSRYRKQLAAKKYLADVKKGGT [Peptide R3P37]	71	4	18
HSDGIFTDSYSRYRKKMAVKKYLAAVL-NH2 [PAC16]	0.2	0.2	1
HSDAVFTDNYTRLRKQMAAKKYLNSILK [Peptide R3P50]	0.7	0.13	6
HSDAVFTDNYTRLRKQMAIKKYLNSIKNKR [Peptide R3P103]	0.4	0.05	8
HSDAVFTDNYTRLRKQIAAKKYLQTIKK [Peptide R3P61]	110	0.8	140
HSDAVFTDNYTRLRKQMAGKKYLNSIKNRI [rR3P175]	400	2.2	180

Reference: patent publication US6972319B1, “Pituitary adenylate cyclase activating peptide (PACAP)receptor 3 (R3) agonists and their pharmacological methods of use” (priority 1999, dated 2005)
